# Results: patent US20250230161A1, “POLYCYCLIC CAP-DEPENDENT ENDONUCLEASE INHIBITORS FOR TREATING OR PREVENTING INFLUENZA” (Merck Sharp & Dohme LLC, priority 2021, published 2025)
# pEC50: −log10 of the molar value.
# Test system: FLU A (PR/8/34)
# Test: Flu A Neuraminidase Antiviral Assay
# Format: cell-based
# Conditions: MDCK cells infected with FLU A (PR/8/34), 48 h incubation, NA activity by MUNANA fluorescence
row,SMILES,pEC50
1,CC1CCCC(c2ccccc2)N2CN1C(=O)c1c(O)c(=O)ccn12 (centres unmarked) [Compound 15],6.34
2,O=C1c2c(O)c(=O)ccn2N2CN1CC(F)CCC2c1ccccc1 (centres unmarked) [Compound 9],6.24
3,CC1/C=C\CC(c2ccccc2)N2CN1C(=O)c1c(O)c(=O)ccn12 (centres unmarked) [Compound 19],6.64
4,O=C1c2c(O)c(=O)ccn2N2CN1CCCCC2c1cccc2ccccc12 (centres unmarked) [Compound 10],6.24
5,CC1N2CCCCCC(c3ccccc3)N1n1ccc(=O)c(O)c1C2=O (centres unmarked) [Compound 22],6.64
6,O=C1c2c(O)c(=O)ccn2N2CN1CCCCC2c1ccc(Cl)cc1 (centres unmarked) [Compound 4],5.77
7,O=C1c2c(O)c(=O)ccn2N2CN1C(C1CC1)/C=C\CC2c1ccccc1 (centres unmarked) [Compound 20],6.77
8,O=C1c2c(O)c(=O)ccn2N2CN1C/C=C\CC2c1ccccc1 (centres unmarked) [Compound 17],6.71
9,O=C1c2c(O)c(=O)ccn2N2CN1CCCCC2c1cccc2ccc(F)cc12 (centres unmarked) [Compound 11],6.02
10,O=C1c2c(O)c(=O)ccn2N2CN1CCCCC2c1cccc(Cl)c1 (centres unmarked) [Compound 3],6.88
11,O=C1c2c(O)c(=O)ccn2N2CN1CCCCCC2c1ccccc1 (centres unmarked) [Compound 14],6.03
12,O=C1c2c(O)c(=O)ccn2N2CN1C(C1CC1)CCCC2c1ccccc1 (centres unmarked) [Compound 16],6.79
13,O=C1c2c(O)c(=O)ccn2N2CN1CCCCC2c1ccccc1 (centres unmarked) [Compound 1],6.84
14,O=C1c2c(O)c(=O)ccn2N2CN1CCCCC2c1ccccc1Cl (centres unmarked) [Compound 2],7.14
15,O=C1c2c(O)c(=O)ccn2N2CN1CCCCC2c1ccc2ccccc2c1 (centres unmarked) [Compound 12],5.20
16,O=C1c2c(O)c(=O)ccn2N2CN1CCCCC2c1ccccc1Br (centres unmarked) [Compound 5],7.04
17,CC1N2CCCCC(c3ccccc3)N1n1ccc(=O)c(O)c1C2=O (centres unmarked) [Compound 21],7.01
18,O=C1c2c(O)c(=O)ccn2N2CN1C/C=C\CC2c1cccc2ccc(F)cc12 (centres unmarked) [Compound 18],5.84
19,CC1CCN2CN(C(c3ccccc3)C1)n1ccc(=O)c(O)c1C2=O (centres unmarked) [Compound 23],5.36
20,CC1(c2ccccc2)CCCCN2CN1n1ccc(=O)c(O)c1C2=O (centres unmarked) [Compound 13],6.51
